Experimental data taken from ChEMBL document CHEMBL1201862, “PubChem BioAssay data set” (2004).
Activity calls are given as the source filed them.

Experiments:
[1] = target: Dual specificity tyrosine-phosphorylation-regulated kinase 1A (Rattus norvegicus, UniProt Q63470); type: biochemical, Homo sapiens
[2] = target: T1, Coagulation factor XII (Homo sapiens, UniProt P00748); type: functional;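 further: activated factor XIIa alpha cleaving a fluorogenic AMC peptide substrate; inhibitor potency from loss of enzyme activity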
T1 sequence (P00748 whole entry): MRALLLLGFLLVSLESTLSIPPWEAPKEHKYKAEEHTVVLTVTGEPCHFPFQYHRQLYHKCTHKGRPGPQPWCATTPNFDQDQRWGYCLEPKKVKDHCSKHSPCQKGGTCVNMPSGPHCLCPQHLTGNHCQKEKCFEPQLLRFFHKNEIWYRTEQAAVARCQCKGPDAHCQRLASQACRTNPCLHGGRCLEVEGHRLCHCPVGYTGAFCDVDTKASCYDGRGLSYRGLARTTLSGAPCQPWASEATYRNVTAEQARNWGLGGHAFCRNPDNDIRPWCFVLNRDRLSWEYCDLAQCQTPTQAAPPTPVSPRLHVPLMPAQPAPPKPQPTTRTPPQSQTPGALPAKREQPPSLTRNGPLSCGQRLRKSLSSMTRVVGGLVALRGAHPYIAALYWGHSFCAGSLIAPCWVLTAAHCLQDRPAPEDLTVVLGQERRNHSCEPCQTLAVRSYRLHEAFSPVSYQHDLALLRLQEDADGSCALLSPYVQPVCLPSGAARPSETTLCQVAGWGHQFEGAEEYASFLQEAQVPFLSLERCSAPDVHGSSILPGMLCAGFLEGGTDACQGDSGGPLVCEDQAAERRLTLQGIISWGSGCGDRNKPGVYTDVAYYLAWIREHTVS

[3] = system: HeLa; assay: HeLa cell cytotoxicity, dose response, cytotoxicity control for MITF activator project, CellTiter-Glo luminescence, cherry-pick samples (AID 540259); type: functional, cell-based; conditions: Homo sapiens
[4] = target: Cytochrome P450 3A4 (Homo sapiens, UniProt P08684);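 further: CYP3A4 tested as one member of a cytochrome P450 panel screen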
Sequence of Cytochrome P450 3A4 (P08684 whole entry): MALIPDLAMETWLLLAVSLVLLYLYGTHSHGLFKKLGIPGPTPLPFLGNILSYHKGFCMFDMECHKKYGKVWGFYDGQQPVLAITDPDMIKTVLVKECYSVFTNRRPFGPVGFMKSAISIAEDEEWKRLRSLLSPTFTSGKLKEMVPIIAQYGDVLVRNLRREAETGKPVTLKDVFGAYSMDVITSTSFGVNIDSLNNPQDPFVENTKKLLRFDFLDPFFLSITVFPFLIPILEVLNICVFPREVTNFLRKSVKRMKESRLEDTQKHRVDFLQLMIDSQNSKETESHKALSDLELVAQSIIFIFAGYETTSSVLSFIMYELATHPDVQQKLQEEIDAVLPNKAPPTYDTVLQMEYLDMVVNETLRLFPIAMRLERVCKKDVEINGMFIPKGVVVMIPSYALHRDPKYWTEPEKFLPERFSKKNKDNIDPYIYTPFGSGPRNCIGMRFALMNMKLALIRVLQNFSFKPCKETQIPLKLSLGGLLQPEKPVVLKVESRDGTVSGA

[5] = target: Cytochrome P450 2C9 (Homo sapiens, UniProt P11712)
[6] = target: T2, Short transient receptor potential channel 4 (Mus musculus, UniProt Q9QUQ5); assay: mouse TRPC4 channel inhibitors, dose response, cell-based, HEK293 TRPC4/mu-opioid, Fluo-4 calcium (AID 434942); type: functional;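 further: potency of inhibitors blocking the TRPC4 calcium response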
T2 sequence (Q9QUQ5 whole entry): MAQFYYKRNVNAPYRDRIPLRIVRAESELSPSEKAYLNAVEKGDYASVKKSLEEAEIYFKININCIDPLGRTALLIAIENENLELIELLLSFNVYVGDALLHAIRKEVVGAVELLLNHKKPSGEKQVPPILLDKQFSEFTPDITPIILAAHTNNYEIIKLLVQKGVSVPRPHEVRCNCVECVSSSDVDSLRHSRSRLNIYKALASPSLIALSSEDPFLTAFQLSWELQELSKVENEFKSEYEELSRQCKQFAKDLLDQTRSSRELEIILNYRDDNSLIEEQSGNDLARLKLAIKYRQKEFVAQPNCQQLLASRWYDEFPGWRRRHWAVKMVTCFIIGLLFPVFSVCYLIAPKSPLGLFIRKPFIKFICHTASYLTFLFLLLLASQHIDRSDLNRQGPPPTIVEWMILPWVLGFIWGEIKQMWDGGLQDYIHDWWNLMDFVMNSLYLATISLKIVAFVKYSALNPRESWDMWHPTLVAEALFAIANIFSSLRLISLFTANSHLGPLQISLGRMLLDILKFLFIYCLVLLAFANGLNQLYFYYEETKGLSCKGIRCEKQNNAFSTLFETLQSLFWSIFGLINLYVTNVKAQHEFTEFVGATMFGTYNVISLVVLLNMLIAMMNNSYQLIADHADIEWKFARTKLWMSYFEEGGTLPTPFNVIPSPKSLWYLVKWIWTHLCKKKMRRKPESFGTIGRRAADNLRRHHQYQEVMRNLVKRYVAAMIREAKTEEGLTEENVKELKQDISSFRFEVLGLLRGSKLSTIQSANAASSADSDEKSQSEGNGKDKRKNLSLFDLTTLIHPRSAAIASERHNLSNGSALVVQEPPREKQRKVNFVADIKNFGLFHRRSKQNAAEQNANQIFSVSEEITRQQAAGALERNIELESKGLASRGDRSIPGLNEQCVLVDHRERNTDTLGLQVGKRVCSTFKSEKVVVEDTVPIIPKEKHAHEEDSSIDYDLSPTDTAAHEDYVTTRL

[7] = target: Heat shock protein HSP 90-alpha (Homo sapiens, UniProt P07900); type: functional, organism-based
[8] = target: T3, C-C chemokine receptor type 6 (Homo sapiens, UniProt P51684); assay: CCR6 receptor antagonists, dose response, cell-based, luminescent beta-arrestin readout (AID 504728); type: functional
T3 sequence (P51684 whole entry): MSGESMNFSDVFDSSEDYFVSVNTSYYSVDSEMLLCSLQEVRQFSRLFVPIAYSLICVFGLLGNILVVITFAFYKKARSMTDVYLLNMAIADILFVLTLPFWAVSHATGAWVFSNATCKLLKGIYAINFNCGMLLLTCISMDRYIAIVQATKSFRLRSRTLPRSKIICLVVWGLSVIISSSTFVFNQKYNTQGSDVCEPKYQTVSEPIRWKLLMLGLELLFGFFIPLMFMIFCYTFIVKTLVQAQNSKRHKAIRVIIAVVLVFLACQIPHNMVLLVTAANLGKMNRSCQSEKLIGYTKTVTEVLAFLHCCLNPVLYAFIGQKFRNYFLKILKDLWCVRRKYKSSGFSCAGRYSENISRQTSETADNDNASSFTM

[9] = target: Beta-galactosidase (Escherichia coli, UniProt Q8VNN2); assay: beta-galactosidase enzyme inhibitors and activators, dose response, artefact control for CCR6 antagonist project, biochemical, E. coli enzyme, set 3 (AID 504712); type: functional
Sequence of Beta-galactosidase (Q8VNN2 whole entry): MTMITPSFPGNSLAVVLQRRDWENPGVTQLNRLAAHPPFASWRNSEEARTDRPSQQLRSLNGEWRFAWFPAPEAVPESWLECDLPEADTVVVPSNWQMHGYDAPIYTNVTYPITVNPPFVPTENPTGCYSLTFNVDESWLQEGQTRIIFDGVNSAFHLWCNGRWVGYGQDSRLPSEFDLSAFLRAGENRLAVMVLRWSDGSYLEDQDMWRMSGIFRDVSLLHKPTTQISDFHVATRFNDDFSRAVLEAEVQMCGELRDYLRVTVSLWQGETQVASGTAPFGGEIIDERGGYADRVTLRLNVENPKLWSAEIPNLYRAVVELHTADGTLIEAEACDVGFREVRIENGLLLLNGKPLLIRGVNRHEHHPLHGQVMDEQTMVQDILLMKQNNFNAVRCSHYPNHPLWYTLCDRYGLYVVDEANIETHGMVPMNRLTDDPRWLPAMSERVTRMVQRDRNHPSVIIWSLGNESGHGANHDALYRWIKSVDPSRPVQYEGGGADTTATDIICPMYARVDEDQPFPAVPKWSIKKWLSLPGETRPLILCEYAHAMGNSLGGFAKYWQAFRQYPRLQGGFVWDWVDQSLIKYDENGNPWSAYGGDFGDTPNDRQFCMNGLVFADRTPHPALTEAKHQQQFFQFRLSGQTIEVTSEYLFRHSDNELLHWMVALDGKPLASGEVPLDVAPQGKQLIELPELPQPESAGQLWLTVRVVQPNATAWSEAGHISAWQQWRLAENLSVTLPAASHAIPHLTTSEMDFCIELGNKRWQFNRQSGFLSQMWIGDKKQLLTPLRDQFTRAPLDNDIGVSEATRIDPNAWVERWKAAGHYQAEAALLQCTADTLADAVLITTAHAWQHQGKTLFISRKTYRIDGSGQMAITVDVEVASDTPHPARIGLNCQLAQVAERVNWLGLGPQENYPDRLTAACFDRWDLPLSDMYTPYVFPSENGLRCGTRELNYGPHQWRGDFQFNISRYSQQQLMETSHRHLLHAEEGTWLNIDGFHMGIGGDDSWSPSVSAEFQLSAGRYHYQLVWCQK

[10] = target: Glucose-6-phosphate 1-dehydrogenase (Homo sapiens, UniProt P11413); assay: human G6PD enzyme inhibitors, dose response, selectivity assay for P. falciparum G6PD inhibitor project, biochemical, fluorescence (AID 504792); type: functional
[11] = Luminescence Cell-Based Dose Response HTS to Identify Inhibitors of 5'UTR Stem-Loop Driven Prion Protein mRNA Translation in H4 Neuroglioblastoma Cells. [Related pubchem assays: 1827 (Project Summary), 1813 (Primary HTS)]; type: functional
[12] = growth suppression of PTEN-null colon cells, dose response, cell-based, HCT116 PTEN knockout (AID 1047); type: functional;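 further: HCT116 colon tumor cells with PTEN knocked out; cells exposed to compound for 60 hours before readout; potency for loss of cell viability measured by luminescence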
[13] = inhibitors of SNCA 5'UTR-driven reporter translation, confirmation, H4 neuroglioma cells, luminescence (AID 1988); type: functional, cell-based
[14] = target: T4, Ubiquitin-conjugating enzyme E2 N (Homo sapiens, UniProt P61088); type: functional;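 further: Dose-response confirmation in a TR-FRET assay detecting UBC13-driven polyubiquitin chain formation, inhibition measured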
T4 sequence (P61088 whole entry): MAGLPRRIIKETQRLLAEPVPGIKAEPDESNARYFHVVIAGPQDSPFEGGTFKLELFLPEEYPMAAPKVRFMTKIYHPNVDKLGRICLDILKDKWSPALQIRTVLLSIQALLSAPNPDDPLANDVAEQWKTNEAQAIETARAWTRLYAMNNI

[15] = growth suppression of beta-catenin-knockout colon cells, dose response, cell-based, HCT116, human colon tumor (AID 1045); type: functional;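 further: HCT116 colon tumor cells with beta catenin knocked out; cells exposed to compound for 60 hours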
[16] = inhibitors of firefly luciferase expression or activity, dose response, H4 neuroglioma cells, luminescence (AID 1990); type: functional, cell-based
[17] = system: Vero; assay: host cell cytotoxicity of antiviral hits, dose response, cytotoxicity control for West Nile virus antiviral project, secondary assay (AID 1650); type: functional; conditions: Chlorocebus sabaeus
[18] = system: Vero; assay: cells; type: functional, cell-based; conditions: Chlorocebus sabaeus
[19] = system: Vero; assay: cells; type: functional; conditions: Chlorocebus sabaeus
[20] = target: NAD-dependent protein deacylase sirtuin-5, mitochondrial (Homo sapiens, UniProt Q9NXA8); assay: SIRT5 desuccinylase inhibitors, dose response, biochemical, fluorescence imaging, cherry-pick, set 5 (AID 720591);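 further: desuccinylation of succinyl peptide AMC substrate read as fluorescence after trypsin release; potency of inhibitors that lower fluorescence and may act on trypsin instead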
[21] = target: T5, DNA dC->dU-editing enzyme APOBEC-3G (Homo sapiens, UniProt Q9HC16); assay: Dose Response confirmation of small molecule APOBEC3G DNA Deaminase Inhibitors via a fluorescence-based single-stranded DNA deaminase assay. [Related pubchem assays (depositor defined):AID493012, AID493028]; type: functional
T5 sequence (Q9HC16 whole entry): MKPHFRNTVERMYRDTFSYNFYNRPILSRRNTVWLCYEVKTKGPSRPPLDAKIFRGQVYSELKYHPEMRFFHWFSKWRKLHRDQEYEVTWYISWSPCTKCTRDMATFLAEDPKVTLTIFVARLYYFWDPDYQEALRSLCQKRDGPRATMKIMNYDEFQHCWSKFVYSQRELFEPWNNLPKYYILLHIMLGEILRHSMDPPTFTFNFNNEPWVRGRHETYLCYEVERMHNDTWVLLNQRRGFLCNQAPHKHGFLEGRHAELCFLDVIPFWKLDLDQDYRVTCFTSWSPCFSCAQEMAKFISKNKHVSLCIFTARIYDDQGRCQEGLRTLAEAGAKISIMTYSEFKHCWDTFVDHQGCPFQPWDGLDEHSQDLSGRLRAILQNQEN

[22] = target: T6, Voltage-gated N-type calcium channel alpha-1B subunit/Amyloid beta A4 precursor protein-binding family A member 1 (Homo sapiens, UniProt Q00975+Q02410); type: protein assay
T6 sequence (Q00975 whole entry): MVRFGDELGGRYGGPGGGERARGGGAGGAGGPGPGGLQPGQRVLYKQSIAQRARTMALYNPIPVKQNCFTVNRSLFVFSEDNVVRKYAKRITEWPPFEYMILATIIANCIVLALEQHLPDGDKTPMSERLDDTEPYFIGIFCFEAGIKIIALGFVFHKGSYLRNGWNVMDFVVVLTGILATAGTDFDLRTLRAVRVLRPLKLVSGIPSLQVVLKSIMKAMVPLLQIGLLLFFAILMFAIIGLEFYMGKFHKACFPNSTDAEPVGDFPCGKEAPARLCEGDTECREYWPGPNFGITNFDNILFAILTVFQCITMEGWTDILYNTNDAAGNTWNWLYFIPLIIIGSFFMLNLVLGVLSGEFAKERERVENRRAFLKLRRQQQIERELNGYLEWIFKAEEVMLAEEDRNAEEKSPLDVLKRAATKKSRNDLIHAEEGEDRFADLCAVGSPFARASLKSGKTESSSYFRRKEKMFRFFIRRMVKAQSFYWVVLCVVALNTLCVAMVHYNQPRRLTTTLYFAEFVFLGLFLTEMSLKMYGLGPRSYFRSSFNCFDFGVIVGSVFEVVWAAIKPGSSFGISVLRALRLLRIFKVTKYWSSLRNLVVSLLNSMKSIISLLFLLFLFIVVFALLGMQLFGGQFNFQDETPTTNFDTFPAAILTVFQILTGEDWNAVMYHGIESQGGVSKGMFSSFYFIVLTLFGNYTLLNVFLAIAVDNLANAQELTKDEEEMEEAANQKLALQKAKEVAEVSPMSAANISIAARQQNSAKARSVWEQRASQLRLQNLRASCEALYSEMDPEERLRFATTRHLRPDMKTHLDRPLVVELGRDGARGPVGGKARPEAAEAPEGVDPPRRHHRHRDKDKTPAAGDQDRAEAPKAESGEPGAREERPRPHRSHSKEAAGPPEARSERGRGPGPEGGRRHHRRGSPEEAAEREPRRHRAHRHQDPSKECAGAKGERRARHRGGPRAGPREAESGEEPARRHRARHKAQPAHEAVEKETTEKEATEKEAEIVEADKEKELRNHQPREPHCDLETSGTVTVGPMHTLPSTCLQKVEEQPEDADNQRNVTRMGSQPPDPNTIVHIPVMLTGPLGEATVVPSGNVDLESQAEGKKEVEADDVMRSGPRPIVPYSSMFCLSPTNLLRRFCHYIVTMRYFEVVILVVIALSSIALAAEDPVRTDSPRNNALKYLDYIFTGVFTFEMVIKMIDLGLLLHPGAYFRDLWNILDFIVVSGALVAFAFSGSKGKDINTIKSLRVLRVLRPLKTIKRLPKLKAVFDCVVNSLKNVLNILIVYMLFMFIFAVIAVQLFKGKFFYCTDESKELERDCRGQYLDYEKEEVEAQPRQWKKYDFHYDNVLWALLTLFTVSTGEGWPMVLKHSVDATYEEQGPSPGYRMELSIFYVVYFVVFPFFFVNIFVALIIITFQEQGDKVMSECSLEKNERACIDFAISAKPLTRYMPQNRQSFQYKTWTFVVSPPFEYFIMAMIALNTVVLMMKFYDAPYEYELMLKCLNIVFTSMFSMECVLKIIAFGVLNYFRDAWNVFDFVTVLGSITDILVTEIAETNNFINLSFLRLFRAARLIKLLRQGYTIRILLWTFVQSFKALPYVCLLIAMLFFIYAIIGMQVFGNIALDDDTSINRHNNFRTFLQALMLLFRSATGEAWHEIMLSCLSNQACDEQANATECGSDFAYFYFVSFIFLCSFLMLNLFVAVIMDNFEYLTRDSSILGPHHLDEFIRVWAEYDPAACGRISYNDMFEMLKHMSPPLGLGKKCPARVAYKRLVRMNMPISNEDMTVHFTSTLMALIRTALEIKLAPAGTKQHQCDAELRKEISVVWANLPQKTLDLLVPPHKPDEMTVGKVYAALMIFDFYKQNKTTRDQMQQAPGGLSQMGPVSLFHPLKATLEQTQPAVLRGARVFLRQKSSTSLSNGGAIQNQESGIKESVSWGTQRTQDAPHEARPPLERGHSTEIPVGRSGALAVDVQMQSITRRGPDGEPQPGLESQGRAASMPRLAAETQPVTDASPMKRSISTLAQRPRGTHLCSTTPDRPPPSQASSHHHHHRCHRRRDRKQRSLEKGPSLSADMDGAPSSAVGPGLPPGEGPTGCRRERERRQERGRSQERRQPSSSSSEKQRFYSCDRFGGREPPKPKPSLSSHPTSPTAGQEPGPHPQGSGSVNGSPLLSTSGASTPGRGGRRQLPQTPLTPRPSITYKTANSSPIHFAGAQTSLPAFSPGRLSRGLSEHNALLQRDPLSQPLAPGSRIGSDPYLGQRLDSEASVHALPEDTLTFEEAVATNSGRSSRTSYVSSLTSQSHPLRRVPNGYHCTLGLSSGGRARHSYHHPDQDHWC
T6 sequence (Q02410 whole entry): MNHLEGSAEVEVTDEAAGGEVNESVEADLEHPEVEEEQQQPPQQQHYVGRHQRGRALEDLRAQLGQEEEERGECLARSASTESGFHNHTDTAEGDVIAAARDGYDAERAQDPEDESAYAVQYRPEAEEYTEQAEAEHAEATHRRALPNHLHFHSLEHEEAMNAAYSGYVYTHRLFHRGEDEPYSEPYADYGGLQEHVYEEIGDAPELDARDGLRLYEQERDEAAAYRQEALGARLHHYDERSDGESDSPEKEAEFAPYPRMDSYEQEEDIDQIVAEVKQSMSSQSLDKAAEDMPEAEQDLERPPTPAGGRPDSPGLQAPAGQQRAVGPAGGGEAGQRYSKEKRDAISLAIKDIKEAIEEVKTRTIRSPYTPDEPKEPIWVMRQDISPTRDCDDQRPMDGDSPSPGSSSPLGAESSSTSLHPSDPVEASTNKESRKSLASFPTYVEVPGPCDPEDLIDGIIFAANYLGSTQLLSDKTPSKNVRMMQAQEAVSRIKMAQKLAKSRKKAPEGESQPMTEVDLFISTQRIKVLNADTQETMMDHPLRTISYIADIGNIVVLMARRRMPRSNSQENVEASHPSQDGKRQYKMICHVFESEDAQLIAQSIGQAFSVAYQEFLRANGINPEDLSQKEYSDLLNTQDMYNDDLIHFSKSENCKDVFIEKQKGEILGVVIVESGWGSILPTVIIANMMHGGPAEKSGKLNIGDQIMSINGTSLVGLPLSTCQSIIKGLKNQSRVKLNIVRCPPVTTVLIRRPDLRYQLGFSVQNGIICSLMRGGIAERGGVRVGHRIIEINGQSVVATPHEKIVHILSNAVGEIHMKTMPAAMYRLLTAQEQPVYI

[23] = target: T6, Voltage-gated N-type calcium channel alpha-1B subunit/Amyloid beta A4 precursor protein-binding family A member 1; type: protein assay; remark: listed apart in the source
[24] = target: T5, DNA dC->dU-editing enzyme APOBEC-3G; type: functional
[25] = target: DNA dC->dU-editing enzyme APOBEC-3A (Homo sapiens, UniProt P31941); assay: Dose Response confirmation of small molecule APOBEC3A DNA Deaminase Inhibitors via a fluorescence-based single-stranded DNA deaminase assay. [Related pubchem assays (depositor defined):AID493011, AID493024]; type: functional
[26] = target: Phospholipase A2 (Homo sapiens, UniProt P04054); type: functional;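 further: confirmatory dose-response counterscreen on phospholipase A2, testing hits that came from an ultra-high-throughput screen for ATG4B inhibitors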
[27] = target: T7, Cysteine protease ATG4B (Homo sapiens, UniProt Q9Y4P1); type: functional;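 further: Fluorescence-based dose-response confirmation assay measuring inhibition of ATG4B activity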
T7 sequence (Q9Y4P1 whole entry): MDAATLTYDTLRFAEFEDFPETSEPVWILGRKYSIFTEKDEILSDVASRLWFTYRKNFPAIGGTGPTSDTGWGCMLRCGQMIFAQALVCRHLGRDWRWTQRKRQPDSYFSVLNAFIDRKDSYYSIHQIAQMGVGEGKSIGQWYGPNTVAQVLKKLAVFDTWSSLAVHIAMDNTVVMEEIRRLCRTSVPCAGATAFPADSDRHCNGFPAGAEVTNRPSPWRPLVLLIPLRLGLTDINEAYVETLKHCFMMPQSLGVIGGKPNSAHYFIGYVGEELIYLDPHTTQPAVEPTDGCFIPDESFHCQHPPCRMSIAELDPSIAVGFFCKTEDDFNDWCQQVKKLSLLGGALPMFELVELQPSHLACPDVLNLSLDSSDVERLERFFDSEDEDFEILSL

CCN(CC)c1c([N+](=O)[O-])c(=O)sc2ccccc12
AC50 [1]: > 120 µM (inactive)

O=C(NCc1ccncc1)c1ccc(Br)o1
IC50 [2]: > 50 µM (inactive)

Cc1ccc(NC(=O)c2sc3nc(C)cc(C)c3c2N)cc1
AC50 [3]: 213 µM (active)

CCOC(=O)/C(C#N)=C\N(C)C
AC50 [4]: inconclusive
AC50 [5]: 39.8 µM (inconclusive)

COc1cccc(CNC(=O)CCC2CCCN(Cc3cc(Cl)ccc3O)C2)c1 (configuration not stated)
EC50 [6]: 2.11 µM (active)

CCC(=O)OCOc1ccc(/C=C2/CCC(CN(C)C)C2=O)cc1 (configuration not stated)
AC50 [7]: 2.85 µM (active)
IC50 [8]: 15.5 µM (active)
IC50 [9]: > 66.6 µM (inactive)
IC50 [10]: > 80 µM (inactive)

CC12CCC(C/C1=N/OC(=O)c1cccc([N+](=O)[O-])c1)C2(C)C (configuration not stated)
EC50 [6]: 0.531 µM (active)

c1cc2c(cc1C1CCCCC1)c1c3n2CCCNC3CCC1 (configuration not stated)
EC50 [11]: 71.1 µM (active)
EC50 [12]: 5.92 µM (active)
EC50 [13]: 18 µM (active)
IC50 [8]: 19.8 µM (active)
IC50 [9]: > 66.6 µM (inactive)
IC50 [14]: > 20 µM (inactive)
EC50 [15]: 4.46 µM (active)
EC50 [16]: > 120 µM (not active)

N#C/C(=C\c1ccc(-c2cccc([N+](=O)[O-])c2)o1)C(=O)Nc1nc(-c2cccs2)cs1
IC50 [8]: > 66.6 µM (inactive)
IC50 [9]: > 66.6 µM (inactive)

O=C1CCCc2ccccc2N1Cc1ccccc1Cl
AC50 [4]: inconclusive

CC1(C)COC(/C=C/c2ccc([N+](=O)[O-])cc2)=N1
CC50 [17]: 10.2 µM (active)
IC50 [18]: > 25 µM (active)
CC50 [19]: 12.4 µM (active)

CCCCn1cnc2sc(-c3ccccc3)cc2c1=O
AC50 [3]: 111 µM (active)

O=S(=O)([N-]c1nc2ccccc2nc1-[n+]1ccn(Cc2ccccc2)c1)c1ccc(Cl)cc1
IC50 [2]: > 50 µM (inactive)
AC50 [20]: 24.8 µM (active)

CCOC(=O)c1c(N)sn(-c2ccccc2C)c1=S
IC50 [21]: 45.6 µM (active)

CC(=O)Nc1ccc(NC(=O)c2ccc(NC(=O)c3ccccc3)cc2)cc1
IC50 [22]: 6.5 µM (active)
IC50 [23]: > 50 µM (inactive)

O=[N+]([O-])c1cc2c(cc1/C=N/Nc1nc(O)c3ccccc3n1)OCO2
IC50 [24]: 4.7 µM (active)
IC50 [25]: 3.63 µM (active)

CN(C)c1cccc(C(=O)n2cc(C(=O)c3cc(F)ccc3O)cn2)c1
IC50 [26]: 9.78 µM (active)
IC50 [2]: 12.4 µM (active)
IC50 [27]: 7.59 µM (active)

Cc1ccc(Nc2ncc(C(=O)NCCCN3CCN(C)CC3)c3ccccc23)cc1Cl
IC50 [18]: 22.7 µM (active)
CC50 [19]: > 25 µM (active)

Cc1ccc(OCc2cc(C(=O)N3C[C@H]4C[C@H]5C[C@@H](C4)C[C@H]3C5)no2)cc1C
AC50 [3]: 151 µM (active)

CCCn1c(C)c(C(=O)c2ccc3ccccc3c2)c2ccccc21
AC50 [4]: inconclusive

Cn1cc(Cl)c(C(=O)Nc2nc3ccc([N+](=O)[O-])cc3s2)n1
IC50 [22]: 5.21 µM (active)
IC50 [23]: > 50 µM (inactive)
